Experimental data from article PMC3008316 (Antiviral research, 2009).
Like-named read-outs stand apart in the source and are kept apart here.

Columns and labels:
PTV, Adames strain [1] = system: PTV, Adames strain; design: species or system Syrian hamsters; details: hamster, in vivo
PTV, Adames strain [2] = system: PTV, Adames strain; design: species or system C57BL/6 mice; details: mouse, in vivo
PICV, strain An 4763 [3] = type: in vivo, Syrian hamsters
[4] = system: phleboviruses (RVFV, PTV, SFNV); experiment: organism not typed; type: cell-based
[5] = system: RVFV vaccine strain MP-12
[6] = system: RVFV vaccine strain MP-12; remark: listed apart in the source
PTV, Adames strain [7] = system: PTV, Adames strain
PTV, Adames strain [8] = system: PTV, Adames strain; remark: listed apart in the source
[9] = system: Sandfly fever virus, Naples strain (SFNV)
[10] = system: Sandfly fever virus, Naples strain (SFNV); remark: listed apart in the source
[11] = system: Tacaribe virus (TCRV), strain TRVL 11573
[12] = system: Tacaribe virus (TCRV), strain TRVL 11573; remark: listed apart in the source
[13] = system: Junin virus (JUNV) vaccine strain Candid 1
[14] = system: Junin virus (JUNV) vaccine strain Candid 1; remark: listed apart in the source
PICV, strain An 4763 [15] = system: PICV, strain An 4763
PICV, strain An 4763 [16] = system: PICV, strain An 4763; remark: listed apart in the source
[17] = rats; ref Y. Furuta, unpublished data; cited from earlier work
in vitro [18] = details: monkey, CC50 ± SD
in vitro [19] = details: monkey, CC50 ± SD; remark: listed apart in the source
[20] = system: RVFV vaccine strain MP-12; experiment: microbe, parasite or virus in culture; details: Rift Valley fever virus, Vero 76, read-out: EC50 ± SD (CPER)
[21] = system: RVFV vaccine strain MP-12; experiment: microbe, parasite or virus in culture; details: Rift Valley fever virus, Vero 76, read-out: EC90 ± SD (VYR)
PTV, Adames strain [22] = experiment: microbe, parasite or virus in culture; details: Punta Toro virus, Vero 76, read-out: EC50 ± SD (CPER)
PTV, Adames strain [23] = experiment: microbe, parasite or virus in culture; details: Punta Toro virus, Vero 76, read-out: EC90 ± SD (VYR)
[24] = system: Sandfly fever virus, Naples strain (SFNV); experiment: microbe, parasite or virus in culture; details: sandfly fever Sicilian virus, Vero 76, read-out: EC50 ± SD (CPER)
[25] = system: Sandfly fever virus, Naples strain (SFNV); experiment: microbe, parasite or virus in culture; details: sandfly fever Sicilian virus, Vero 76, read-out: EC90 ± SD (VYR)
[26] = system: Tacaribe virus (TCRV), strain TRVL 11573; experiment: microbe, parasite or virus in culture; details: Mammarenavirus tacaribeense, Vero 76, read-out: EC50 ± SD (CPER)
[27] = system: Tacaribe virus (TCRV), strain TRVL 11573; experiment: microbe, parasite or virus in culture; details: Mammarenavirus tacaribeense, Vero 76, read-out: EC90 ± SD (VYR)
[28] = system: Junin virus (JUNV) vaccine strain Candid 1; experiment: microbe, parasite or virus in culture; details: Mammarenavirus juninense, Vero, read-out: EC50 ± SD (CPER)
[29] = system: Junin virus (JUNV) vaccine strain Candid 1; experiment: microbe, parasite or virus in culture; details: Mammarenavirus juninense, Vero, read-out: EC90 ± SD (VYR)
PICV, strain An 4763 [30] = experiment: microbe, parasite or virus in culture; details: Pichinde virus, Vero, read-out: EC50 ± SD (CPER)
PICV, strain An 4763 [31] = experiment: microbe, parasite or virus in culture; details: Pichinde virus, Vero, read-out: EC90 ± SD (VYR)
[32] = hamster, in vivo, po, 25 mg/kg/day
[33] = hamster, in vivo, po, 50 mg/kg/day
[34] = hamster, in vivo, po, 100 mg/kg/day

NC(=O)c1nccn([C@@H]2O[C@H](CO)[C@@H](O)[C@H]2O)c1=O [T-1106, 3,4-dihydro-3-oxo-4-β-D-ribofuranosyl-2-pyrazinecarboxamide]
ED50 (survival) (PTV, Adames strain [1]): 12 µmol/kg/day
Mean virus titer ± SD, liver (PTV, Adames strain [1]): < 4.3 ± 2.1 (40)
Potency relative to T-705 based on ED50 (PTV, Adames strain [1]): 9.4 times
Survival compared to placebo (PTV, Adames strain [1]): Significant protection
ALT ± SD (PTV, Adames strain [1]; po, 25 mg/kg/day): 251 ± 438 international units per liter
Mean virus titer ± SD, liver (PTV, Adames strain [1]; po, 25 mg/kg/day): < 4.6 ± 1.7 (80)
Mean virus titer ± SD, serum (PTV, Adames strain [1]; po, 25 mg/kg/day): < 4.8 ± 2.9 (60)
Percentage of animals with detectable virus, liver (PTV, Adames strain [1]; po, 25 mg/kg/day): < 4.6 ± 1.7 (80) %
Percentage of animals with detectable virus, serum (PTV, Adames strain [1]; po, 25 mg/kg/day): < 4.8 ± 2.9 (60) %
ALT ± SD (PTV, Adames strain [1]; po, 50 mg/kg/day): 802 ± 1149 international units per liter
Mean virus titer ± SD, liver (PTV, Adames strain [1]; po, 50 mg/kg/day): < 4.9 ± 1.5 (80)
Mean virus titer ± SD, serum (PTV, Adames strain [1]; po, 50 mg/kg/day): < 3.9 ± 2.2 (40)
Percentage of animals with detectable virus, liver (PTV, Adames strain [1]; po, 50 mg/kg/day): < 4.9 ± 1.5 (80) %
Percentage of animals with detectable virus, serum (PTV, Adames strain [1]; po, 50 mg/kg/day): < 3.9 ± 2.2 (40) %
ALT ± SD (PTV, Adames strain [1]; po, 100 mg/kg/day): 446 ± 959 international units per liter
Mean virus titer ± SD, serum (PTV, Adames strain [1]; po, 100 mg/kg/day): < 3.6 ± 2.6 (40)
Percentage of animals with detectable virus, liver (PTV, Adames strain [1]; po, 100 mg/kg/day): < 4.3 ± 2.1 (40) %
Percentage of animals with detectable virus, serum (PTV, Adames strain [1]; po, 100 mg/kg/day): < 3.6 ± 2.6 (40) %
ED50 (survival) (PTV, Adames strain [2]): 201 µmol/kg/day
Survival compared to placebo, log-rank analysis (PICV, strain An 4763 [3]; hamster, in vivo, 100 mg/kg/day): failed to significantly protect
ED50 (survival) (PICV, strain An 4763 [3]; hamster, in vivo, po): 441 µmol/kg/day
ALT ± SD (PICV, strain An 4763 [3]; [32]): 1354 ± 961 international units per liter
Mean virus titer ± SD, liver (PICV, strain An 4763 [3]; [32]): 7.7 ± 0.6 (100)
Mean virus titer ± SD, serum (PICV, strain An 4763 [3]; [32]): 6.5 ± 1.1 (100)
Percentage of animals with detectable virus, liver (PICV, strain An 4763 [3]; [32]): 7.7 ± 0.6 (100) %
Percentage of animals with detectable virus, serum (PICV, strain An 4763 [3]; [32]): 6.5 ± 1.1 (100) %
Mean virus titer ± SD, liver (PICV, strain An 4763 [3]; [33]): 7.1 ± 1.5 (100)
Mean virus titer ± SD, serum (PICV, strain An 4763 [3]; [33]): < 5.4 ± 2.1 (80)
Percentage of animals with detectable virus, liver (PICV, strain An 4763 [3]; [33]): 7.1 ± 1.5 (100) %
Percentage of animals with detectable virus, serum (PICV, strain An 4763 [3]; [33]): < 5.4 ± 2.1 (80) %
ALT ± SD (PICV, strain An 4763 [3]; [34]): 961 ± 1071 international units per liter
Mean virus titer ± SD, liver (PICV, strain An 4763 [3]; [34]): 7.4 ± 0.4 (100)
Mean virus titer ± SD, serum (PICV, strain An 4763 [3]; [34]): 6.5 ± 1.0 (100)
Percentage of animals with detectable virus, liver (PICV, strain An 4763 [3]; [34]): 7.4 ± 0.4 (100) %
Percentage of animals with detectable virus, serum (PICV, strain An 4763 [3]; [34]): 6.5 ± 1.0 (100) %
Survival outcome (PICV, strain An 4763 [3]; n=10): 4 of the 10
Animals protected (survival) (PICV, strain An 4763 [3]; n=10, 25 mg/kg/day): 20%
Animals protected (survival) (PICV, strain An 4763 [3]; n=10, 50 mg/kg/day): 40%
Greater sensitivity of RVFV to inhibitory activity [4]: ~ 5 times
Inhibitory concentrations, range [4]: 76 to 743 µM
EC50 ([4]; read-out: EC50 values, range (CPE reduction assay)): 111 to 743 µM
EC90 ([4]; read-out: EC90 values, range (VYR)): 76 to 576 µM
SI (CC50/EC50) [5]: >33
SI (CC50/EC90) [6]: >25
SI (CC50/EC50) (PTV, Adames strain [7]): >5
SI (CC50/EC90) (PTV, Adames strain [8]): >6
SI (CC50/EC50) [9]: >24
SI (CC50/EC90) [10]: >49
SI (CC50/EC50) [11]: >6
SI (CC50/EC90) [12]: >13
SI (CC50/EC50) [13]: >29
SI (CC50/EC90) [14]: >33
SI (CC50/EC50) (PICV, strain An 4763 [15]): >24
SI (CC50/EC90) (PICV, strain An 4763 [16]): >21
Liver tissue:plasma ratio relative to T-705 [17]: ~ 50 fold
CC50 (in vitro [18]): > 3720 µM
CC50 (in vitro [19]): > 3720 µM
EC50 [20]: 111 ± 58 µM
EC90 [21]: 146 ± 129 µM
EC50 (PTV, Adames strain [22]): 743 ± 297 µM
EC90 (PTV, Adames strain [23]): 576 ± 450 µM
EC50 [24]: 152 ± 13 µM
EC90 [25]: 76 ± 15 µM
EC50 [26]: 619 ± 205 µM
EC90 [27]: 296 ± 273 µM
EC50 [28]: 128 ± 44 µM
EC90 [29]: 114 ± 28 µM
EC50 (PICV, strain An 4763 [30]): 154 ± 39 µM
EC90 (PICV, strain An 4763 [31]): 173 ± 93 µM
